Data taken from patent publication US6106822A, “Hormone and growth factor phosphoglycokine mimetics from mycobacterium” (University College of London, priority 1995, dated 2000).

Key:
[1] = infusion; normal rats given a glucose load or streptozotocin-treated rats; cited from earlier work
isolated adipocytes = assay: lipogenesis assay (incorporation of labelled glucose into lipids of isolated adipocytes); assay type: cell-based, rat; conditions: 10 μl of stock solution in final volume of 1.25 ml
Description: The activation of lipogenesis is monitored by measuring the incorporation of uniformly labelled glucose into lipids of isolated adipocytes as described by Rodbell in J. Biol. Chem. (1964) 239, 375-380.
For the lipogenesis assay, 10 μl of the stock solution is added to a final volume of 1.25 ml.

OC1C(O)C(O)C(O)C(O)C1O (stereo not drawn) [chiro-inositol]
activity of glycogen synthase I [1]: enhanced activity of glycogen synthase I | plasma glucose [1]: decreased plasma glucose

Insulin
Lipogensis (% stimulation) (isolated adipocytes): 273%
